Laboratory results taken from patent US8889878B2, “Haloalky-substituted amides as insecticides and acaricides” (Bayer CropScience AG, priority 2009, dated 2014).

Columns and labels:
Boophilus microplus [1] = experiment: Boophilus microplus test (BOOPMI injection), Example 1; format: in vivo; details: application rate 20 μg/animal, injected into abdomen, after 7 days
Summary of the method: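 Compound in DMSO, diluted with water, injected into the abdomen of engorged ticks, which were then held in a climate-controlled room. Efficacy was scored after 7 days from fertile egg laying, with 100% meaning no tick laid fertile eggs.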

Ctenocephalides felis [2] = experiment: Ctenocephalides felis oral (CTECFE), Example 2; format: in vivo; details: application rate 20 ppm in citrated cow's blood, after 2 days
Method: (§1) Ctenocephalides felis Oral ([…]) • Solvent: 1 part by weight of dimethyl sulphoxide For the purpose of preparing an active ingredient formulation, 10 mg of active ingredient are mixed with 0.5 ml of dimethyl sulphoxide. A portion of the concentrate was diluted with citrated cow's blood and the desired concentration was prepared. 20 unfed adult fleas (Ctenocephalides felis) are placed into a chamber sealed at the top and bottom with gauze. A metal cylinder with its lower end sealed with Parafilm is placed onto the chamber. The cylinder contains the blood-active ingredient preparation, which can be consumed by the fleas through the Parafilm membrane. After 2 days, the kill rate in % is determined. 100% means that all fleas were killed; 0% means that no fleas were killed.

Lucilia cuprina larvae = experiment: Lucilia cuprina test (LUCICU), Example 3; format: in vivo; details: application rate 20 ppm, treated horsemeat, after 2 days
Method: Lucilia cuprina Test (LUCICU) • Solvent: dimethyl sulphoxide To prepare an active ingredient formulation, 10 mg of active ingredient are mixed with 0.5 ml of dimethyl sulphoxide, and the concentrate is diluted with water to the desired concentration. Vessels containing horsemeat which has been treated with the active ingredient formulation of the desired concentration are populated with Lucilia cuprina larvae. After 2 days, the kill rate in % is determined. 100% means that all larvae were killed; 0% means that no larvae were killed.

[3] = system: armyworm (Spodoptera frugiperda); experiment: Spodoptera frugiperda test (SPODFR spray treatment), Example 6; format: in vivo; details: application rate 20 g/ha, maize leaf discs sprayed, after 7 days
Method: Spodoptera frugiperda Test (SPODFR Spray Treatment)
(§2) • Solvent: 78.0 parts by weight of acetone • 1.5 parts by weight of dimethylformamide • Emulsifier: 0.5 part by weight of alkylaryl polyglycol ether
To prepare an active ingredient formulation, 1 part by weight of active ingredient was mixed with the stated amounts of solvent and emulsifier, and the concentrate was diluted with emulsifier-containing water to the desired concentration. Leaf discs from maize (Zea mays) are sprayed with an active ingredient formulation of the desired concentration and, after drying, populated with caterpillars of the armyworm (Spodoptera frugiperda).
After 7 days, the efficacy in % is determined. 100% means that all caterpillars were killed; 0% means that no caterpillars were killed.

[4] = system: mustard beetle (Phaedon cochleariae); experiment: Phaedon test (PHAECO spray treatment), Example 7; format: in vivo; details: application rate 20 g/ha, china cabbage leaf discs sprayed, after 7 days
Summary of the method: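 Spray formulation (acetone/DMF with alkylaryl polyglycol ether, diluted in emulsifier-containing water) applied to Chinese cabbage leaf discs, which were dried and then stocked with mustard beetle larvae. Efficacy scored at 7 days as % larvae killed (100% all, 0% none).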

Boophilus microplus [5] = experiment: Boophilus microplus test (BOOPMI injection), Example 11; format: in vivo; details: application rate 20 μg/animal, injected into abdomen, after 7 days
Summary of the method: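 Adult ticks injected in the abdomen with compound diluted in DMSO, then held in a climate-controlled room. Efficacy in % determined after 7 days from fertile eggs laid; 100% means no tick laid fertile eggs.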

Musca domestica adults = experiment: Musca domestica test (MUSCDO), Example 14; format: in vivo; details: application rate 100 ppm, treated sponge, after 2 days
Summary of the method: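 Compound dissolved in DMSO and diluted in water to the test concentration, then applied to a sponge in vessels holding adult flies. Percent kill scored after 2 days (100% = all flies dead).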

[6] = system: green peach aphid (Myzus persicae); experiment: Myzus test (MYZUPE spray treatment), Example 17; format: in vivo; details: china cabbage leaf discs sprayed, after 6 days
Summary of the method: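 Chinese cabbage leaf discs infested with all aphid stages were sprayed with compound formulated in acetone/dimethylformamide plus alkylaryl polyglycol ether emulsifier, diluted in emulsifier-containing water. Mortality read after 6 days as % efficacy (100% all killed, 0% none killed).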

[7] = logP by HPLC on reverse-phase column (EEC Directive 79/831 Annex V.A8); format: physicochemical; details: for logP: HPLC-MS
Method: The logP values reported in the above Tables and Preparation Examples were determined according to EEC Directive 79/831 Annex V.A8 by HPLC (High Performance Liquid Chromatography) on a reverse-phase column (C18). Temperature 43° C.

[8] = system: green peach aphid (Myzus persicae); experiment: Myzus test (MYZUPE spray treatment), Example 5; format: in vivo; details: application rate 20 g/ha, china cabbage leaf discs sprayed, after 6 days
Method: Myzus Test (MYZUPE Spray Treatment)
• Solvent: 78 parts by weight of acetone • 1.5 parts by weight of dimethylformamide • Emulsifier: 0.5 part by weight of alkylaryl polyglycol ether
To prepare an active ingredient formulation, 1 part by weight of active ingredient is mixed with the stated amounts of solvent and emulsifier, and the concentrate is diluted with emulsifier-containing water to the desired concentration. Leaf discs from china cabbage (Brassica pekinensis) infested by all stages of the green peach aphid (Myzus persicae) are sprayed with an active ingredient formulation of the desired concentration.
After 6 days, the efficacy in % is determined. 100% means that all aphids were killed; 0% means that no aphids were killed.

[9] = system: red spider mite (Tetranychus urticae); experiment: Tetranychus test, OP-resistant (TETRUR spray treatment), Example 8; format: in vivo; details: application rate 20 g/ha, common bean leaf discs sprayed, after 6 days
Summary of the method: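 Bean (Phaseolus vulgaris) leaf discs carrying all stages of OP-resistant Tetranychus urticae sprayed with compound in acetone/DMF with emulsifier, diluted in water to the test concentration. Mortality scored after 6 days as % efficacy (100% = all mites killed).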

Ctenocephalides felis [10] = experiment: Ctenocephalides felis oral (CTECFE), Example 12; format: in vivo; details: application rate 100 ppm in citrated cow's blood, after 2 days
Method: as §1, with “preparing an appropriate active ingredient” for “preparing an active ingredient”, “the concentrate is diluted with” for “the concentrate was diluted with”, “desired concentration is established. About 20 unfed” for “desired concentration was prepared. 20 unfed”

[11] = system: armyworm (Spodoptera frugiperda); experiment: Spodoptera frugiperda test (SPODFR spray treatment), Example 15; format: in vivo; details: maize leaf discs sprayed, after 7 days
Summary of the method: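 Maize leaf discs sprayed with active ingredient in acetone/DMF with alkylaryl polyglycol ether emulsifier, diluted in water, then populated with caterpillars after drying. Efficacy in % after 7 days: 100% all caterpillars killed, 0% none.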

[12] = system: mustard beetle (Phaedon cochleariae); experiment: Phaedon test (PHAECO spray treatment), Example 16; format: in vivo; details: Phaedon cochleariae, foliar; application rate 500 g/ha, china cabbage leaf discs sprayed, after the desired time; read-out: efficacy in %
Summary of the method: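 Chinese cabbage leaf discs sprayed with acetone/DMF-emulsifier formulation of active ingredient diluted in emulsifier-containing water, then infested with mustard beetle larvae after drying. Efficacy scored as % larval kill (100% = all killed, 0% = none) after the chosen time.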

[13] = system: red spider mite (Tetranychus urticae); experiment: Tetranychus test; OP-resistant (TETRUR spray treatment), Example 18; format: in vivo; details: Tetranychus urticae, foliar, 144 h; application rate 500 g/ha, common bean leaf discs sprayed, after 6 days; read-out: efficacy in %
Method: Tetranychus Test; OP-Resistant (TETRUR Spray Treatment)
as §2
To prepare an appropriate active ingredient formulation, 1 part by weight of active ingredient is mixed with the stated amounts of solvent and emulsifier, and the concentrate is diluted with emulsifier-containing water to the desired concentration. Leaf discs from the common bean (Phaseolus vulgaris) infested by all stages of the red spider mite (Tetranychus urticae) are sprayed with an active ingredient formulation of the desired concentration.
After 6 days, the efficacy in % is determined. 100% means that all spider mites were killed; 0% means that no spider mites were killed.

[14] = system: Boophilus microplus females of the SP-resistant Parkhurst strain; experiment: Boophilus microplus test (DIP), Example 10; format: in vivo; details: application rate 100 ppm, after 7 days
Method: Boophilus microplus Test (DIP)
Test animals: adult engorged Boophilus microplus females of the SP-resistant Parkhurst strain • Solvent: dimethyl sulphoxide
10 mg of active ingredient are dissolved in 0.5 ml of dimethyl sulphoxide. For the purpose of preparing a suitable formulation, the active ingredient solution is diluted with water to the concentration desired in each case.
This active ingredient formulation is pipetted into tubes. 8-10 ticks are transferred into a further tube with holes. The tube is immersed into the active ingredient formulation, and all ticks are completely wetted. After the liquid has run out, the ticks are transferred onto filter discs in plastic dishes and stored in a climate-controlled room. The efficacy is assessed after 7 days by the number of fertile eggs laid. Eggs whose fertility is not outwardly visible are stored in glass tubes in a climate-controlled cabinet until the larvae hatch. Efficacy of 100% means that none of the ticks has laid any fertile eggs.

[15] = system: Tick nymphs (Amblyomma hebraeum); experiment: Amblyomma hebaraeum test (AMBYHE), Example 9; format: in vivo; details: application rate 100 ppm, immersed one minute, after 42 days
Method: Amblyomma hebaraeum Test (AMBYHE) • Solvent: dimethyl sulphoxide To prepare an appropriate active ingredient formulation, 10 mg of active ingredient are mixed with 0.5 ml of dimethyl sulphoxide, and the concentrate is diluted with water to the desired concentration. Tick nymphs (Amblyomma hebraeum) are placed into perforated plastic cups and immersed in the desired concentration for one minute. The ticks are transferred onto filter papers in a Petri dish and stored in a climate-controlled cabinet. After 42 days, the kill rate in % is determined. 100% means that all ticks were killed; 0% means that no ticks were killed.

| Compound | efficacy in % [3] [%] | efficacy in % [4] [%] | efficacy in % (fertile eggs laid) (Boophilus microplus [5]) [%] | logP [7] | efficacy in % [8] [%] | efficacy in % [9] [%] | efficacy in % (fertile eggs laid) [14] [%] | efficacy in % ([6]; application rate 100 g/ha) [%] | also measured |
| --- | --- | --- | --- | --- | --- | --- | --- | --- | --- |
| O=C(/C=C/c1ccc(C(=O)NC2CC2)c(C(F)(F)F)c1)NC(c1cccc(C(F)(F)F)c1)C(F)(F)F (centres unmarked) [Ia-23] | 83 | 100 | 100 | HPLC-MS: logP = 3.18; mass |  |  |  |  | efficacy in % (fertile eggs laid) (Boophilus microplus [1]): 100%; kill rate in % (efficacy) (Ctenocephalides felis [2]): 100%; kill rate in % (efficacy) (Lucilia cuprina larvae): 100%; kill rate in % (efficacy) (Musca domestica adults): 100%; efficacy in % ([6]; application rate 500 g/ha): 100% |
| O=C(/C=C/c1ccc(C(=O)NCc2ccccn2)c(Br)c1)NC(c1cccc(C(F)(F)F)c1)C(F)(F)F (centres unmarked) [Ia-41] |  | 100 | 100 | HPLC-MS: logP = 2.76; mass | 100 | 100 |  |  | efficacy in % (fertile eggs laid) (Boophilus microplus [1]): 100%; kill rate in % (efficacy) (Ctenocephalides felis [2]): 100%; kill rate in % (efficacy) (Lucilia cuprina larvae): 90%; efficacy in % ([6]; application rate 500 g/ha): 90% |
| O=C(/C=C/c1ccc(C(=O)Nc2ccccn2)c(C(F)(F)F)c1)NC(c1cccc(C(F)(F)F)c1)C(F)(F)F (centres unmarked) [Ia-54] | 100 | 100 | 100 | HPLC-MS: logP = 3.58; mass |  | 100 |  |  | kill rate in % (efficacy) (Ctenocephalides felis [10]): 95% |
| O=C(/C=C/c1ccc(C(=O)Nc2ccc(Cl)nc2)c(C(F)(F)F)c1)NC(c1cccc(C(F)(F)F)c1)C(F)(F)F (centres unmarked) [Ia-72] | 83 | 100 |  | HPLC-MS: logP = 3.73; mass |  |  |  |  |  |
| CC(CF)NC(=O)c1ccc(/C=C/C(=O)NC(c2cccc(C(F)(F)F)c2)C(F)(F)F)cc1C(F)(F)F (centres unmarked) [Ia-75, N-(1-Fluoropropan-2-yl)-4-[(1E)-3-oxo-3-({2,2,2-trifluoro-1-[3-(trifluoromethyl)phenyl]-ethyl}amino)prop-1-en-1-yl]-2-(trifluoromethyl)benzamide] |  | 100 |  |  | 80 | 100 |  |  | pest or weed control at 0.02 mg (Boophilus microplus [5]; Rhipicephalus microplus, 168 h, read-out: efficacy in % (fertile eggs laid)): 100%; pest or weed control at 500 g/ha ([11]; Spodoptera frugiperda, foliar, 168 h, application rate 500 g/ha, read-out: efficacy in %): 100%; pest or weed control at 500 g/ha [12]: 100%; pest or weed control at 500 g/ha [13]: 100%; chromatographic logP ([7]; reverse-phase C18 HPLC column, pH 2.7, HPLC, C18 reverse phase, 43° C., acidic range pH 2.7, calibration with alkan-2-ones): 3.37 |
| O=C(/C=C/c1ccc(C(=O)Nc2ccccn2)c(C(F)(F)F)c1)NC(c1cc(Cl)cc(C(F)(F)F)c1)C(F)(F)F (centres unmarked) [Ia-82] | 83 | 100 | 100 | HPLC-MS: logP = 4.32; mass |  |  |  |  |  |
| CC(CF)NC(=O)c1ccc(/C=C/C(=O)NC(c2cccc(C(F)(F)F)c2)C(F)(F)F)cc1Cl (centres unmarked) [Ia-112] |  | 100 | 100 | HPLC-MS: logP = 3.25 mass | 100 | 100 | 100 |  |  |
| Cc1cc(/C=C/C(=O)NC(c2cccc(C(F)(F)F)c2)C(F)(F)F)ccc1C(=O)NCCC1CC1 (centres unmarked) [Ia-115] |  | 100 |  | HPLC-MS: logP = 3.61 mass | 90 | 90 |  | 100 |  |
| C#CC(C)NC(=O)c1ccc(/C=C/C(=O)NC(c2cccc(C(F)(F)F)c2)C(F)(F)F)cc1Cl (centres unmarked) [Ia-161] |  |  | 100 | HPLC-MS: logP = 3.43; mass |  |  | 98 | 90 | kill rate in % (efficacy) [15]: 100%; kill rate in % (efficacy) (Musca domestica adults): 80%; efficacy in % ([11]; application rate 100 g/ha): 100% |
| O=C(/C=C/c1ccc(C(=O)NC2CCC2)c(Cl)c1)NC(c1cccc(C(F)(F)F)c1)C(F)(F)F (centres unmarked) [Ia-162] |  |  | 100 | HPLC-MS: logP = 3.59; mass |  |  | 100 | 100 | kill rate in % (efficacy) [15]: 100% |
